Each block holds one molecule with its values, some of them ahead of it.
What was measured:
[1] = reported, see U.S. Pat. No. 8,293,737; cited from earlier work
[2] = Dynamic vapor sorption (DVS) measurement, hygroscopicity; type: physicochemical
Procedure: Projekt Messtechnik Sorptions Prüfsystem SPS 11-100n or Surface Measurement Systems DVS-1. The sample was placed on an aluminum or platinum holder on top of a microbalance and allowed to equilibrate for 2 h at 50% r.h. before starting one of two pre-defined humidity programs:
(2) 50→0% r.h. (5%/h); 5 h at 0% r.h.;
(3) 0→95% r.h. (5%/h); 5 h at 95% r.h.; and
The hygroscopicity was classified based on the mass gain at 85% r.h. relative to the initial mass as follows: deliquescent (sufficient water adsorbed to form a liquid), very hygroscopic (mass increase of ≧15%), hygroscopic (mass increase <15% and ≧2%), slightly hygroscopic (mass increase <2% and ≧0.2%), or non-hygroscopic (mass increase <0.2%).
During the DVS measurement (FIG. 4), the relative humidity was first lowered from 50% r.h. to 0% r.h., then raised from 0% r.h. to 95% r.h. and lowered back again to 50% r.h. […] Upon increasing the relative humidity to 95% r.h., a gradual mass gain of about 0.3 wt % (relative to the mass at 0% r.h.) was observed. […] The mass increase of 0.1 wt % at 85% r.h. (relative to the starting mass at 50% r.h.) classifies the sample as non-hygroscopic.

[3] = Stability study of Form B stored at about 25° C. and about 60% r.h. (HPLC, XRPD, IR); type: physicochemical; design: key to XRPD / IR: The term “complies” refers to substantially the same XRPD pattern and/or IR spectrum as the sample at the incept of the storage (time point=initial); conditions: for Concentration of compound 1 by HPLC Assay (anhydrous basis) / IR / XRPD: about 25° C., about 60% r.h.
Procedure: A sample of Form B was stored at about 25° C. and about 60% r.h. for a period of time (e.g., 24 months). The concentration of compound 1 in the sample was assayed using HPLC, XRPD, and IR at different time points. The term “complies” refers to substantially the same XRPD pattern and/or IR spectrum as the sample at the incept of the storage (time point=initial).

[4] = Competitive slurry experiment, Form B versus anhydrous form; type: physicochemical
Source text: In some embodiments, it would be desirable to provide a crystalline polymorph of compound 1 that, as compared to the amorphous compound 1, imparts improved physical characteristics such as stability and/or ease of formulation. Accordingly, provided herein is a crystalline form (denoted Form B) of compound 1. Form B is a hemihydrate of compound 1. […] In some embodiments, Form B has a water content of about 2.0 wt %. […] In a competitive slurry experiment there was a tendency for the anhydrous form to convert to Form B.

[5] = Stability study of Form B stored at about 40° C. and about 75% r.h. (HPLC, XRPD, IR); type: physicochemical; design: key to XRPD / IR: The term “complies” refers to substantially the same XRPD pattern and/or IR spectrum as the sample at the incept of the storage (time point=initial); conditions: for Concentration of compound 1 by HPLC Assay (anhydrous basis) / IR / XRPD: about 40° C., about 75% r.h.
Procedure: Standard solutions of the SP196-FD-P1 free drug of compound 1 and the L-malate salt of compound 1 (SP196-MLA-P4) were prepared in the concentration range of 0.2-0.05 mg/mL for the construction of a calibration curve.
Another sample of Form B was stored at about 40° C. and about 75% r.h. for a period of time (e.g., 6 months). The concentration of compound 1 in the sample was assayed using HPLC, XRPD, and IR at different time points. The term “complies” refers to substantially the same XRPD pattern and/or IR spectrum as the sample at the incept of the storage (time point=initial).

[6] = Drying of Form B under vacuum at 40° C.; type: physicochemical
Procedure: A solid sample of Form B was dried in an attempt to dehydrate it. The sample was stored under vacuum (<5 mbar (e.g., about 4 mbar)) at 40° C. overnight or for 1 day.

[7] = vacuum (<5 mbar) at 40° C. overnight or for 1 day

Compound: CCn1cc(C(=O)N2CCOCC2)c(=O)c2cc(NC3Cc4ccccc4C3)cnc21 [Compound 1, 1-ethyl-6-(indan-2-ylamino)-3-(morpholine-4-carbonyl)-1,8-naphthyridin-4-one]
sedative side effects [1]: without sedative side effects

hygroscopicity (in words) [2]: substantially non-hygroscopic | FT-Raman spectrum after the DVS measurement compared to before ([2]; after DVS cycle 50→0→95→50% r.h.): unchanged | mass increase (DVS) ([2]; at 85% r.h., relative to the starting mass at 50% r.h.): 0.1 wt % | mass gain (DVS) ([2]; upon increasing the relative humidity to 95% r.h., relative to the mass at 0% r.h.): about 0.3 wt % | mass loss (DVS) ([2]; upon lowering the relative humidity from 50% r.h. to 0% r.h.): about 0.1 wt % | final mass (DVS) ([2]; upon lowering the relative humidity from 95% r.h. to 50% r.h.): equal to the starting mass | stable upon storage, duration ([3]; about 25° C. and about 60% r.h.): at least 24 months | Concentration of compound 1 by HPLC Assay (anhydrous basis) ([3]; 3 months): 99.4% w/w | IR ([3]; 3 months): complies | XRPD ([3]; 3 months): complies | Concentration of compound 1 by HPLC Assay (anhydrous basis) ([3]; 6 months): 99.6% w/w | IR ([3]; 6 months): complies | XRPD ([3]; 6 months): complies | Concentration of compound 1 by HPLC Assay (anhydrous basis) ([3]; 12 months): 99.3% w/w | IR ([3]; 12 months): complies | XRPD ([3]; 12 months): complies | Concentration of compound 1 by HPLC Assay (anhydrous basis) ([3]; 18 months): 99.4% w/w | IR ([3]; 18 months): complies | XRPD ([3]; 18 months): complies | Concentration of compound 1 by HPLC Assay (anhydrous basis) ([3]; 24 months): 99.2% w/w | IR ([3]; 24 months): complies | XRPD ([3]; 24 months): complies | Concentration of compound 1 by HPLC Assay (anhydrous basis) ([3]; time point Initial): 99.5% w/w | stable upon storage, duration ([5]; about 40° C. and about 75% r.h.): at least 6 months | Concentration of compound 1 by HPLC Assay (anhydrous basis) ([5]; 1 month): 99.6% w/w | Concentration of compound 1 by HPLC Assay (anhydrous basis) ([5]; 2 months): 99.3% w/w | Concentration of compound 1 by HPLC Assay (anhydrous basis) ([5]; 3 months): 99.3% w/w | IR ([5]; 3 months): complies | XRPD ([5]; 3 months): complies | Concentration of compound 1 by HPLC Assay (anhydrous basis) ([5]; 6 months): 99.4% w/w | IR ([5]; 6 months): complies | XRPD ([5]; 6 months): complies | Concentration of compound 1 by HPLC Assay (anhydrous basis) ([5]; time point Initial): 99.5% w/w | stability upon drying [6]: stable upon drying | loss of H2O of the dried sample (TG-FTIR) ([6]; dried sample, from 50° C. to 200° C.): about 1.9 wt % | XRPD pattern of the dried sample compared to before drying [6, 7]: unchanged
Compound: CCn1cc(C(=O)N2CCOCC2)c(=O)c2cc(NC3Cc4ccccc4C3)cnc21 [Form B, 1-ethyl-6-(indan-2-ylamino)-3-(morpholine-4-carbonyl)-1,8-naphthyridin-4-one]
hygroscopicity classification ([2]; based on the mass gain at 85% r.h. relative to the initial mass): non-hygroscopic (non-hygroscopic (mass increase <0.2%)) | relative stability of forms [4]: more stable than an anhydrous form of compound 1 | dehydration on drying [6, 7]: no dehydration and loss of solvent occurred

Source: patent US9758516B2, “Crystalline form of an anxiolytic compound” (Bionomics Limited, priority 2013, dated 2017)
